Read-outs that look alike come from different tables or passages of the source.
Tests used:
[1] = in vitro; format: cell-based
Protocol: (§1) The cytotoxic activities of the synthesized derivatives against ovarian cancer cell lines (SKOV-3) were evaluated using standard MTT assay. SKOV-3 cells cultivated on DMEM medium supplemented with 10% FBS, […], 1% antibiotic/antimycotic solution and 3.6 g/L NaHCO3 were used. Cells were incubated under standard laboratory conditions. Before testing compounds, cells were trypsinized, centrifuged and prepared as per our developed protocol. MTT assay relies on the enzymatic conversion of the MTT substrate into purple formazan by living cells mitochondrial enzymes. Shortly, 96 well plates were seeded (10,000 cells/100 µL/well), then incubated for 24 h at standard conditions. Afterwards, cells were exposed to different concentrations from prepared compounds and incubated for another 24 h. Thereafter, MTT (10 µL, 5 mg/mL, PBS) were added to each well, and plates were incubated for 4 h. Supernatants were then replaced discarded with 200 µL of DMSO to dissolve the precipitated formazan crystals. Formazan absorbance, proportional to living cell number, was read at 550 nm using a microplate reader. Viability percentages were calculated and the corresponding IC50 values were obtained from the linear regression of the calibration curve. For comparison, doxorubicin (DOX) and resveratrol (RES) were used as positive controls. Furthermore, the effect of the newly synthesized derivatives was tested against normal fibroblast cell line to assess their toxicities.

[2] = tested on: SKOV-3 cells; assay: MTT cytotoxicity assay against SKOV-3 ovarian cancer cells; format: cell-based; conditions: Homo sapiens, read-out: IC50, cytotoxicity against SKOV-3
Protocol: as §1

[3] = molecular target: T1, V600EBRAF (mutant BRAF kinase) (Homo sapiens, UniProt P15056, V600E); assay: In vitro ELISA-based kinase assay, V600EBRAF; format: biochemical; conditions: GST-MEK-His substrate
T1 construct: BRAF wild-type and V600E mutant kinase domains were expressed and purified; made in house; host or cells: Sf9 insect cells, baculovirus
T1 sequence (P15056 457-717 V600E limits assumed): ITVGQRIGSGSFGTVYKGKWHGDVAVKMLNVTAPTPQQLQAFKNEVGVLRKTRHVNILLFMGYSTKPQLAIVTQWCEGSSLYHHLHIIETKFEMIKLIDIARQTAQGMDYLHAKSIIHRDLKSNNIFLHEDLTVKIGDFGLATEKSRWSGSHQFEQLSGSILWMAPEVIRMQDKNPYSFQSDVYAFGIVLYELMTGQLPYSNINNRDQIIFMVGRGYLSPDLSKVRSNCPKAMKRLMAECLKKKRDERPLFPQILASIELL
Protocol: BRAF wild-type and V600E mutant kinase domains were expressed and purified according to Nakamura et al. [34]. Shortly, Sf 9 cells infected with BRAF kinase domain containing baculovirus were resuspended, sonicated, and then cleared using ultracentrifugation. Afterwards, the cleared lysate with mixed with equilibrated Talon resin, and the resin then washed with 10 column volumes of wash buffer and then eluted with buffer (25 mM Tris, pH 7.0, 250 mM NaCl, 160 mM imidazole, 10% glycerol). The eluant was then diluted, concentrated using Superdex 200 gel filtration column, purified as previously described and finally stored at –80 °C until use.
The previously prepared GST MEK-His protein was diluted in TTBS buffer (100 μL, 50 μg/mL), and then bound to 96-plate wells coated with glutathione (Pierce Biotechnology). Two DMSO-dilutions of each compound (1 µL) were added to 50 μL (50mM HEPES, pH7.0, 0.7 pmol of BRAF^V600E kinase). Tubes were incubated at ambient temperature for 1 h, then added to GST-MEK-His-plate wells. Afterwards, 50 μL of phosphorylation buffer were added to start kinase reaction (37 °C/30 min/shaking). Reaction was stopped, then substrate was added, and the signal was recorded. […]

[4] = molecular target: topoisomerase II; assay: Topoisomerase II relaxation assay; format: biochemical; conditions: topoisomerase II purified from P388 cells, relaxation of pBR-322 DNA; read-out: IC50, topoisomerase II inhibition
Protocol: The inhibitory effects of the synthesized compounds against topoisomerase II were investigated using relaxation assay according to Goyeneche, et al.. Topoisomerase II was purified from P388 cells, where enzyme unit corresponds to the activity required complete relaxation of […] of supercoiled pBR-322 DNA at 30 °C for 1 h. The assay was performed as per protocol and samples were subjected to electrophoresis (0.7% agarose gels, TBE buffer. Ethidium bromide-stained DNA was examined under UV light.

[5] = SK-OV-3, SKOV-3 cells, MTT, 24 h exposure

SMILES | IC50 at 24 h [1] | melting point | IC50 ([2]; SK-OV-3, 24 h) | IC50 [3] | IC50 [4] | IC50 [2, 5]
CCOC(C)C1CC2C3CCc4cc(O)ccc4C3CCC2(C)C1NNC (stereo not drawn) [Compound 3h, 16-(α-Ethoxy-ethane)-17-[N-methyl-hydrazino]-estra-1(10),2,4-trien-[17,16-c]-3-ol] | 16.2 µM | 280 to 282 °C |  |  |  | 
CCOC(C)C1CC2C3CCc4cc(O)ccc4C3CCC2(C)C1NNc1ccccc1 (stereo not drawn) [Compound 3l, 16-(α-Ethoxy-ethane)-17-[N-phenyl-hydrazino]-estra-1(10),2,4-trien-[17,16-c]-3-ol] | 20.2 µM | 288 to 300 °C |  |  |  | 
COCC1CC2C3CCc4cc(O)ccc4C3CCC2(C)C1NNc1ccccc1 (stereo not drawn) [Compound 3i, 16-(α-Methoxy-methane)-17-[N-phenyl-hydrazino]-estra-1(10),2,4-trien-[17,16-c]-3-ol] | 15.1 µM | 312 to 314 °C |  |  |  | 
COC(C)C1CC2C3CCc4cc(O)ccc4C3CCC2(C)C1NN (stereo not drawn) [Compound 3b, 16-(α-Methoxy-ethane)-17-hydrazino-estra-1(10),2,4-trien[17,16-c]-3-ol] | 2.45 µM | 308 to 310 °C |  |  |  | 
CN1CC2CC3C4CCc5cc(O)ccc5C4CCC3(C)C2=N1 (centres unmarked) [Compound 4a, 1`-Methyl-1`H-estra-1(10),2,4-trien-[17,16-c]pyrazoline-3-ol] | 23.3 µM | 117 to 119 °C |  |  |  | 
CCOCC1CC2C3CCc4cc(O)ccc4C3CCC2(C)C1NNC (stereo not drawn) [Compound 3g, 16-(α-Ethoxy-methane)-17-[N-methyl-hydrazino]-estra-1(10),2,4-trien-[17,16-c]-3-ol] | 11.2 µM | 286 to 288 °C |  |  |  | 
CNNC1C(COC)CC2C3CCc4cc(O)ccc4C3CCC21C (centres unmarked) [Compound 3e] | 8.11 µM | 222 to 224 °C |  |  |  | 
COCC1CC2C3CCc4cc(O)ccc4C3CCC2(C)C1NN (stereo not drawn) [Compound 3a, 16-(α-Methoxy-methane)-17-hydrazino-estra-1(10),2,4-trien-[17,16-c]-3-ol] | 1.2 µM | 199 to 201 °C | 0.00423 ± 0.00012 µM | 0.041 ± 0.0016 µM | 0.00345 ± 0.00013 µM | 
CCOC(C)C1CC2C3CCc4cc(O)ccc4C3CCC2(C)C1NN (stereo not drawn) [Compound 3d, 16-(α-Ethoxy-ethane)-17-hydrazino-estra-1(10),2,4-trien-[17,16-c]-3-ol] | 7.44 µM | 223 to 225 °C |  |  |  | 
CC1C2CC3C4CCc5cc(O)ccc5C4CCC3(C)C2=NN1C (centres unmarked) [Compound 4b, 1`-Methyl-1`H-5`-methyl-estra-1(10),2,4-trien-[17,16-c]pyrazoline-3-ol] | 24.6 µM | 216 to 218 °C |  |  |  | 
COC(C)C1CC2C3CCc4cc(O)ccc4C3CCC2(C)C1NNc1ccccc1 (stereo not drawn) [Compound 3j, 16-(α-Methoxy-ethane)-17-[N-phenyl-hydrazino]-estra-1(10),2,4-trien-[17,16-c]-3-ol] | 16.2 µM | 229 to 231 °C |  |  |  | 
CC12CCC3c4ccc(O)cc4CCC3C1CC1CN(c3ccccc3)N=C12 (centres unmarked) [Compound 4c, 1`-Phenyl-1`H-estra-1(10),2,4-trien-[17,16-c]pyrazoline-3-ol] | 25.6 µM | 255 to 257 °C |  |  |  | 
CC1C2CC3C4CCc5cc(O)ccc5C4CCC3(C)C2=NN1c1ccccc1 (centres unmarked) [Compound 4d, 1`-Phenyl-1`H-5`-methyl-estra-1(10),2,4-trien-[17,16-c]pyrazoline-3-ol] | 30.3 µM | 214 to 216 °C |  |  | 0.0436 ± 0.00098 µM | 
Oc1ccc(/C=C/c2cc(O)cc(O)c2)cc1 [resveratrol] |  |  |  |  |  | 0.055 µM
CCOCC1CC2C3CCc4cc(O)ccc4C3CCC2(C)C1NNc1ccccc1 (stereo not drawn) [Compound 3k, 16-(α-Ethoxy-methane)-17-[N-phenyl-hydrazino]-estra-1(10),2,4-trien-[17,16-c]-3-ol] | 17.8 µM | 338 to 340 °C |  |  |  | 
CCOCC1CC2C3CCc4cc(O)ccc4C3CCC2(C)C1NN (stereo not drawn) [Compound 3c, 16-(α-Ethoxy-methane)-17-hydrazino-estra-1(10),2,4-trien-[17,16-c]-3-ol] | 5.67 µM | 219 to 221 °C |  |  |  | 
COc1cccc2c1C(=O)c1c(O)c3c(c(O)c1C2=O)C[C@@](O)(C(=O)CO)C[C@@H]3O[C@H]1C[C@H](N)[C@H](O)[C@H](C)O1 [doxorubicin] |  |  |  |  |  | 0.25 µM
CNNC1C(C(C)OC)CC2C3CCc4cc(O)ccc4C3CCC21C (stereo not drawn) [Compound 3f, 16-(α-Methoxy-ethane)-17-[N-methyl-hydrazino]-estra-1(10),2,4-trien-[17,16-c]-3-ol] | 9.2 µM | 310 to 312 °C |  |  |  | 
